Laboratory results from the supplement of paper PMC10307832.

How the values were obtained:
Test in all cases: relative viability (nuclei count vs DMSO), 5 days (fraction); higher = more cells survive
A-427 = tested on: A-427
Outline: (§1)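 Dosing by pin tool came one day after lung cancer cell lines were seeded in 1536-well plates, using either one drug or a fixed anchor-drug dose plus five library-drug doses (not always all listed) in √10 steps. After 5 days, nuclei were counted on 4× images. Relative viability is treated-well nuclei count divided by vehicle-well nuclei count, and values are medians of duplicate plates.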

COR-L23 = tested on: COR-L23
Outline: as §1

ChaGo-K-1 = tested on: ChaGo-K-1
Outline: as §1

EMC-BAC-2 = tested on: EMC-BAC-2
Outline: as §1

HARA = tested on: HARA
Outline: as §1

HCC-15 = tested on: HCC-15
Outline: as §1

HCC-366 = tested on: HCC-366
Outline: as §1

HCC-78 = tested on: HCC-78
Outline: as §1

LC-2-ad = tested on: LC-2-ad
Outline: as §1

LK-2 = tested on: LK-2
Outline: as §1

NCI-H1650 = tested on: NCI-H1650
Outline: as §1

NCI-H1734 = tested on: NCI-H1734
Outline: as §1

NCI-H1793 = tested on: NCI-H1793
Outline: as §1

NCI-H1944 = tested on: NCI-H1944
Outline: as §1

NCI-H1993 = tested on: NCI-H1993
Outline: as §1

NCI-H2009 = tested on: NCI-H2009
Outline: as §1

NCI-H2023 = tested on: NCI-H2023
Outline: as §1

NCI-H2228 = tested on: NCI-H2228
Outline: as §1

NCI-H23 = tested on: NCI-H23
Outline: as §1

NCI-H2405 = tested on: NCI-H2405
Outline: as §1

NCI-H838 = tested on: NCI-H838
Outline: as §1

SK-LU-1 = tested on: SK-LU-1
Outline: as §1

UMC-11 = tested on: UMC-11
Outline: as §1

COc1cc(N2CCC(C(N)=O)CC2)ccc1Nc1nc(N)c(Cl)c(Nc2ccccc2S(=O)(=O)C(C)C)n1 [HG-5-88-01] + Nc1nc2[nH]cc(CCc3ccc(C(=O)N[C@@H](CCC(=O)O)C(=O)O)cc3)c2c(=O)[nH]1 [Pemetrexed] (partner 0.2 µM)
relative viability (A-427; first compound 0.04 µM): 0.951 | relative viability (A-427; first compound 0.1265 µM): 1.01 | relative viability (A-427; first compound 0.4 µM): 1 | relative viability (A-427; first compound 1.265 µM): 1.02 | relative viability (A-427; first compound 4 µM): 0.9 | relative viability (COR-L23; first compound 0.04 µM): 0.196 | relative viability (COR-L23; first compound 0.1265 µM): 0.208 | relative viability (COR-L23; first compound 0.4 µM): 0.184 | relative viability (COR-L23; first compound 1.265 µM): 0.199 | relative viability (COR-L23; first compound 4 µM): 0.166 | relative viability (ChaGo-K-1; first compound 0.04 µM): 0.262 | relative viability (ChaGo-K-1; first compound 0.1265 µM): 0.271 | relative viability (ChaGo-K-1; first compound 0.4 µM): 0.24 | relative viability (ChaGo-K-1; first compound 1.265 µM): 0.266 | relative viability (ChaGo-K-1; first compound 4 µM): 0.258 | relative viability (EMC-BAC-2; first compound 0.04 µM): 0.416 | relative viability (EMC-BAC-2; first compound 0.1265 µM): 0.432 | relative viability (EMC-BAC-2; first compound 0.4 µM): 0.385 | relative viability (EMC-BAC-2; first compound 1.265 µM): 0.461 | relative viability (EMC-BAC-2; first compound 4 µM): 0.477 | relative viability (HARA; first compound 0.04 µM): 0.221 | relative viability (HARA; first compound 0.1265 µM): 0.225 | relative viability (HARA; first compound 0.4 µM): 0.199 | relative viability (HARA; first compound 1.265 µM): 0.24 | relative viability (HARA; first compound 4 µM): 0.201 | relative viability (HCC-15; first compound 0.04 µM): 0.209 | relative viability (HCC-15; first compound 0.1265 µM): 0.221 | relative viability (HCC-15; first compound 0.4 µM): 0.213 | relative viability (HCC-15; first compound 1.265 µM): 0.229 | relative viability (HCC-15; first compound 4 µM): 0.185 | relative viability (HCC-366; first compound 0.04 µM): 0.197 | relative viability (HCC-366; first compound 0.1265 µM): 0.146 | relative viability (HCC-366; first compound 0.4 µM): 0.113 | relative viability (HCC-366; first compound 1.265 µM): 0.237 | relative viability (HCC-366; first compound 4 µM): 0.287 | relative viability (HCC-78; first compound 0.04 µM): 0.824 | relative viability (HCC-78; first compound 0.1265 µM): 0.814 | relative viability (HCC-78; first compound 0.4 µM): 0.884 | relative viability (HCC-78; first compound 1.265 µM): 0.849 | relative viability (HCC-78; first compound 4 µM): 0.795 | relative viability (LC-2-ad; first compound 0.04 µM): 0.257 | relative viability (LC-2-ad; first compound 0.1265 µM): 0.257 | relative viability (LC-2-ad; first compound 0.4 µM): 0.259 | relative viability (LC-2-ad; first compound 1.265 µM): 0.275 | relative viability (LC-2-ad; first compound 4 µM): 0.267 | relative viability (LK-2; first compound 0.04 µM): 0.159 | relative viability (LK-2; first compound 0.1265 µM): 0.295 | relative viability (LK-2; first compound 0.4 µM): 0.249 | relative viability (LK-2; first compound 4 µM): 0.202 | relative viability (NCI-H1650; first compound 0.04 µM): 0.352 | relative viability (NCI-H1650; first compound 0.1265 µM): 0.36 | relative viability (NCI-H1650; first compound 0.4 µM): 0.346 | relative viability (NCI-H1650; first compound 1.265 µM): 0.343 | relative viability (NCI-H1650; first compound 4 µM): 0.354 | relative viability (NCI-H1734; first compound 0.04 µM): 0.398 | relative viability (NCI-H1734; first compound 0.1265 µM): 0.423 | relative viability (NCI-H1734; first compound 0.4 µM): 0.361 | relative viability (NCI-H1734; first compound 1.265 µM): 0.391 | relative viability (NCI-H1734; first compound 4 µM): 0.375 | relative viability (NCI-H1793; first compound 0.04 µM): 0.829 | relative viability (NCI-H1793; first compound 0.1265 µM): 0.8 | relative viability (NCI-H1793; first compound 0.4 µM): 0.828 | relative viability (NCI-H1793; first compound 1.265 µM): 0.692 | relative viability (NCI-H1793; first compound 4 µM): 0.522 | relative viability (NCI-H1944; first compound 0.04 µM): 0.642 | relative viability (NCI-H1944; first compound 0.1265 µM): 0.695 | relative viability (NCI-H1944; first compound 0.4 µM): 0.643 | relative viability (NCI-H1944; first compound 1.265 µM): 0.615 | relative viability (NCI-H1944; first compound 4 µM): 0.564 | relative viability (NCI-H1993; first compound 0.04 µM): 0.56 | relative viability (NCI-H1993; first compound 0.1265 µM): 0.577 | relative viability (NCI-H1993; first compound 0.4 µM): 0.552 | relative viability (NCI-H1993; first compound 4 µM): 0.554 | relative viability (NCI-H2009; first compound 0.04 µM): 1.01 | relative viability (NCI-H2009; first compound 0.1265 µM): 1.03 | relative viability (NCI-H2009; first compound 0.4 µM): 0.959 | relative viability (NCI-H2009; first compound 1.265 µM): 0.963 | relative viability (NCI-H2009; first compound 4 µM): 0.975 | relative viability (NCI-H2023; first compound 0.04 µM): 0.231 | relative viability (NCI-H2023; first compound 0.1265 µM): 0.23 | relative viability (NCI-H2023; first compound 0.4 µM): 0.175 | relative viability (NCI-H2023; first compound 1.265 µM): 0.165 | relative viability (NCI-H2023; first compound 4 µM): 0.171 | relative viability (NCI-H2228; first compound 0.04 µM): 0.372 | relative viability (NCI-H2228; first compound 0.1265 µM): 0.237 | relative viability (NCI-H2228; first compound 0.4 µM): 0.237 | relative viability (NCI-H2228; first compound 1.265 µM): 0.26 | relative viability (NCI-H2228; first compound 4 µM): 0.183 | relative viability (NCI-H23; first compound 0.04 µM): 0.678 | relative viability (NCI-H23; first compound 0.1265 µM): 0.77 | relative viability (NCI-H23; first compound 0.4 µM): 0.592 | relative viability (NCI-H23; first compound 1.265 µM): 0.56 | relative viability (NCI-H23; first compound 4 µM): 0.385 | relative viability (NCI-H2405; first compound 0.04 µM): 0.965 | relative viability (NCI-H2405; first compound 0.1265 µM): 1.16 | relative viability (NCI-H2405; first compound 0.4 µM): 0.973 | relative viability (NCI-H2405; first compound 1.265 µM): 0.852 | relative viability (NCI-H2405; first compound 4 µM): 0.954 | relative viability (NCI-H838; first compound 0.04 µM): 0.248 | relative viability (NCI-H838; first compound 0.1265 µM): 0.256 | relative viability (NCI-H838; first compound 0.4 µM): 0.209 | relative viability (NCI-H838; first compound 1.265 µM): 0.234 | relative viability (NCI-H838; first compound 4 µM): 0.246 | relative viability (SK-LU-1; first compound 0.04 µM): 0.919 | relative viability (SK-LU-1; first compound 0.1265 µM): 0.956 | relative viability (SK-LU-1; first compound 0.4 µM): 0.925 | relative viability (SK-LU-1; first compound 1.265 µM): 1.01 | relative viability (SK-LU-1; first compound 4 µM): 0.866 | relative viability (UMC-11; first compound 0.04 µM): 0.797 | relative viability (UMC-11; first compound 0.1265 µM): 0.772 | relative viability (UMC-11; first compound 0.4 µM): 0.844 | relative viability (UMC-11; first compound 1.265 µM): 0.827 | relative viability (UMC-11; first compound 4 µM): 0.789
